Data reported in paper PMC4921870, “The insect repellent N,N-diethyl-m-toluamide (DEET) induces angiogenesis via allosteric modulation of the M3 muscarinic receptor in endothelial cells” (Scientific Reports, 2016).

Biological target: T1, M3 muscarinic receptor (Homo sapiens, UniProt P20309)
T1 construct: gene CHRM3; recombinant M3 receptor expressed in HEK-293 cells (HEK-293/M3)
Experiment: leftward shift of carbachol Ca2+ response in HEK-293/M3 cells (fluo-4); [3H]-4-DAMP not displaced
Assay type: cell-based

T1 sequence (P20309 whole entry): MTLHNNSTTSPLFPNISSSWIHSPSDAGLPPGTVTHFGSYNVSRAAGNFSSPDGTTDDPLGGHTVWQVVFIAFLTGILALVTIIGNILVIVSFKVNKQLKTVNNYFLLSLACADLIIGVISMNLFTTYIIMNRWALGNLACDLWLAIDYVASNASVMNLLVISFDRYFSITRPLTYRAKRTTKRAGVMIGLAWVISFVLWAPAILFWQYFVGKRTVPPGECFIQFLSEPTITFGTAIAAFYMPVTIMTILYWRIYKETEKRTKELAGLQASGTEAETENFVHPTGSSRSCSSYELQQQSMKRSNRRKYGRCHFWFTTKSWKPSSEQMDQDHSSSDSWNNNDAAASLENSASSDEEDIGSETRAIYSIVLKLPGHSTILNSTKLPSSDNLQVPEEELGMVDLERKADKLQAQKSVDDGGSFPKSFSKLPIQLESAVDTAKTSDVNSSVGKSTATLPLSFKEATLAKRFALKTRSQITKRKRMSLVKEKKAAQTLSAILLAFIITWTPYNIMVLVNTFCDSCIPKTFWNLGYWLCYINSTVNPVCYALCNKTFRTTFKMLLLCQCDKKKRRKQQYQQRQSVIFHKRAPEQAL

With `CCN(CC)C(=O)c1cccc(C)c1` [DEET, N,N-diethyl-meta-toluamide] the “leftward shift of carbachol Ca2+ response in HEK-293/M3 cells (fluo-4); [3H]-4-D” value was “Whatever the concentration of DEET used, it was able to induce a leftward shift of the calcium response induced by carbachol”.
